Source: patent US7176231B2, “Aryl-containing 5-acylindolinones, the preparation thereof and their use as medicaments” (Boehringer Ingelheim International GmbH, priority 2004, dated 2007)

Key:
[1] = system: mice; assay: Tolerability after oral administration to mice; type: in vivo; conditions: oral administration of 10 mg/kg to mice
[2] = system: db/db mice; assay: Oral glucose tolerance test; type: in vivo; conditions: fasted db/db mice, 2 g/kg glucose orally 30 minutes after substance
Experimental: Fasted db/db mice 7 to 9 weeks old (Janvier, France) are weighed and blood is taken from the tip of the tail. This blood is used for the first measurement of glucose on the basis of which the animals are randomised and divided into groups. The test substance to be tested may be given either orally or i.p. as a suspension in 0.5% Natrosol. 30 minutes after the administration of the substance the animals are given orally 2 g/kg glucose in a volume of 0.1 ml/100 g body weight dissolved in NaCl solution. Subsequently, the glucose values are determined from the tail blood using a glucometer (Ultra OneTouch, Lifescan) at specific time intervals [30, 60, 120 and 180 minutes after oral administration of the glucose].

In the case of CC(=O)c1ccc2c(c1)/C(=C(/Nc1ccc(CN(C)C)cc1)c1ccc3c(c1)OCCO3)C(=O)N2 [Example 1.051, 5-acetyl-3-{[4-(dimethylamino-methyl)-phenylamino]-(2,3-dihydro-benzo[1,4]-dioxin-6-yl)-methylidene}-2-indolinone], the “changes in the animals' behaviour” value [1] was “no changes were observed” and the “activity in the oral glucose tolerance test” value [2] was “significant activity”.
